This is an account of results in patent US7790143B2, “Vaccines for immunization against helicobacter” (priority 2005, dated 2010).

What all share (set-up): key: R: resistant; S: susceptible; I: intermediate
One assay has as its system H. trogontum. The following applies: 30 μg; taxon 9 H. trogontum; cited from earlier work.
For the next assay, the system named is H. bizzozeronii. The following applies: 30 μg; taxon 3 H. bizzozeronii; cited from earlier work.
For a further assay, the system named is H. aurati. The following applies: 30 μg; taxon 13 H. aurati; cited from earlier work.
For the next assay, the system named is H. muridarum. The following applies: 30 μg; taxon 12 H. muridarum; cited from earlier work.
For a further assay, the system named is H. acinonychis. The following applies: 30 μg; taxon 7 H. acinonychis; cited from earlier work.
A further assay concerns H. nemestrinae. The following applies: 30 μg; taxon 11 H. nemestrinae; cited from earlier work.
Another assay has as its system H. baculiformis M50T. As to the kind of experiment: Susceptibility to antimicrobials (30 μg). The following applies: taxon 1 H. baculiformis (this study). It counts as cell-based. The text has this: Data were obtained from Bronsdon et al. (1991), Dewhirst et al. (2000a), Eaton et al. (1993), Fox et al. (1988, 1995), Hänninen et al. (1996, 2005), Jalava et al. (1997) Int J Syst Bacteriol 47, 975-982, Lee et al. (1988, Infect Immun 56, 2843-2850, 1992), Mendes et al. (1996); Patterson et al. (2000), Van den Buick et al. (2006, Int J Syst Evol Microbiol 56, 1559-1564).

For a further assay, the system named is H. felis. The following applies: 30 μg; taxon 4 H. felis; cited from earlier work.
Another assay relates to H. pylori. The following applies: 30 μg; taxon 6 H. pylori; cited from earlier work.
In the next assay the test system is H. mustelae. The following applies: 30 μg; taxon 10 H. mustelae; cited from earlier work.
The subject of the next assay is H. salomonis. The following applies: 30 μg; taxon 5 H. salomonis; cited from earlier work.
For the next assay, the system named is H. bilis. The following applies: 30 μg; taxon 8 H. bilis; cited from earlier work.

Consider `CCn1cc(C(=O)O)c(=O)c2ccc(C)nc21` [Nalidixic acid], for which the “Susceptibility to” value in the assay on H. trogontum is listed as “R”; in the assay on H. bizzozeronii it was “R”; in the assay with H. aurati, “S”; in the assay on H. muridarum, “R”; in the assay on H. acinonychis, “R”; in the assay with H. nemestrinae, “R”. The “Susceptibility to” value with H. baculiformis M50T is listed as “I”; with H. felis it was “R”; with H. pylori, “R”; with H. mustelae, “S”; in the assay with H. salomonis, “R”; in the assay on H. bilis, “R”.

Regarding `CC(=O)OCC1=C(C(=O)O)N2C(=O)[C@@H](NC(=O)Cc3cccs3)[C@H]2SC1` [Cephalothin], the “Susceptibility to” value with H. trogontum is “R”; with H. bizzozeronii, “S”; in the assay with H. aurati, “R”; in the assay with H. muridarum, “R”; in the assay with H. acinonychis, “S”; with H. nemestrinae it was “S”. Moreover, the “Susceptibility to” value was “R” in the assay on H. baculiformis M50T; “S” with H. felis; “S” in the assay on H. pylori; “R” in the assay on H. mustelae; “S” with H. salomonis; “R” with H. bilis.
